Experimental data taken from the supplement of paper PMC10307832.

What was measured:
Assay in all cases: relative viability (nuclei count vs DMSO), 5 days (fraction); higher = more cells survive
[1] = compound: C1=CC2=C(C=C(C(=C2N=C1)O)N=NC3=CC4=C(C=C3)C=C(C=C4)S(=O)(=O)O)S(=O)(=O)O + Cc1cc(Nc2cc(N3CCN(C)CC3)nc(Sc3ccc(NC(=O)C4CC4)cc3)n2)n[nH]1 [Tozasertib] (partner 0.1 µM)
Method in brief: (§1)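 Relative viability is defined as nuclei in treated wells over nuclei in vehicle wells. Duplicate plates were run and medians reported. Lung cancer cell lines in 1536-well plates were dosed by pin tool one day after seeding, with one drug or with a fixed anchor-drug dose plus five library-drug doses (not always all listed) in √10 steps, and nuclei were counted after 5 days.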

AT-7519 + Pemetrexed = compound: O=C(NC1CCNCC1)c1n[nH]cc1NC(=O)c1c(Cl)cccc1Cl [AT-7519] + Nc1nc2[nH]cc(CCc3ccc(C(=O)N[C@@H](CCC(=O)O)C(=O)O)cc3)c2c(=O)[nH]1 [Pemetrexed] (partner 0.2 µM)
Method in brief: as §1

AT-7519 + Navitoclax = compound: O=C(NC1CCNCC1)c1n[nH]cc1NC(=O)c1c(Cl)cccc1Cl [AT-7519] + CC1(C)CCC(c2ccc(Cl)cc2)=C(CN2CCN(c3ccc(C(=O)NS(=O)(=O)c4ccc(N[C@H](CCN5CCOCC5)CSc5ccccc5)c(S(=O)(=O)C(F)(F)F)c4)cc3)CC2)C1 [Navitoclax] (partner 0.5 µM)
Method in brief: as §1

AT-7519 + Crizotinib = compound: O=C(NC1CCNCC1)c1n[nH]cc1NC(=O)c1c(Cl)cccc1Cl [AT-7519] + C[C@@H](Oc1cc(-c2cnn(C3CCNCC3)c2)cnc1N)c1c(Cl)ccc(F)c1Cl [Crizotinib] (partner 1 µM)
Method in brief: as §1

Row | Cell Line | relative viability ([1]; first compound 0.08 µM) | relative viability ([1]; first compound 0.253 µM) | relative viability ([1]; first compound 0.8 µM) | relative viability ([1]; first compound 2.53 µM) | relative viability ([1]; first compound 8 µM) | relative viability (AT-7519 + Pemetrexed; first compound 0.01 µM) | relative viability (AT-7519 + Pemetrexed; first compound 0.03162 µM) | relative viability (AT-7519 + Pemetrexed; first compound 0.3162 µM) | relative viability (AT-7519 + Pemetrexed; first compound 1 µM) | relative viability (AT-7519 + Navitoclax; first compound 0.01 µM) | relative viability (AT-7519 + Navitoclax; first compound 0.03162 µM) | relative viability (AT-7519 + Navitoclax; first compound 0.3162 µM) | relative viability (AT-7519 + Navitoclax; first compound 1 µM) | relative viability (AT-7519 + Crizotinib; first compound 0.01 µM) | relative viability (AT-7519 + Crizotinib; first compound 0.03162 µM) | relative viability (AT-7519 + Crizotinib; first compound 0.3162 µM) | relative viability (AT-7519 + Crizotinib; first compound 1 µM)
1 | NCI-H522 | 0.583 | 0.556 | 0.609 | 0.539 | 0.631 | 0.992 | 0.943 | 1.03 | 0.929 |  |  |  |  |  |  |  | 
2 | NCI-H838 | 0.238 | 0.214 | 0.272 | 0.285 | 0.266 | 0.247 | 0.246 | 0.281 | 0.115 | 1.22 | 1.06 | 1.09 | 0.147 | 0.805 | 0.826 | 0.571 | 0.194
3 | SW 900 | 0.566 | 0.559 | 0.536 | 0.599 | 0.469 | 0.453 | 0.425 | 0.452 | 0.478 |  |  |  |  |  |  |  | 
4 | A549 |  |  |  |  |  |  |  |  |  | 1.18 | 1.25 | 1.15 | 0.837 | 0.635 | 0.867 | 0.55 | 0.25
5 | A-427 | 0.235 | 0.216 | 0.207 | 0.239 | 0.252 | 1.06 | 0.965 | 1.07 | 1.01 | 0.973 | 0.899 | 1.01 | 0.599 | 0.931 | 0.823 | 0.964 | 0.576
6 | NCI-H1792 |  |  |  |  |  | 0.612 | 0.645 | 0.666 | 0.919 | 0.406 | 0.552 | 0.642 | 0.752 | 0.548 | 0.916 | 0.904 | 1.09
7 | LCLC-97TM1 | 0.279 | 0.203 | 0.196 | 0.338 | 0.221 | 0.182 | 0.156 | 0.152 | 0.165 | 0.637 | 0.31 | 0.461 | 0.398 | 0.334 | 0.254 | 0.328 | 0.191
8 | NCI-H1703 |  |  |  |  |  |  |  |  |  | 0.956 | 1.01 | 1.01 | 0.225 | 0.585 | 0.59 | 0.508 | 0.0921
9 | LCLC-103H | 0.514 | 0.504 | 0.457 | 0.477 | 0.501 | 0.461 | 0.476 | 0.437 | 0.401 |  |  |  |  | 1.05 | 1.08 | 0.999 | 1.27
10 | PC-3 [JPC-3] | 0.963 | 0.848 | 0.846 | 0.856 | 0.864 | 1.05 | 1.1 | 1.11 | 1.47 | 0.754 | 0.714 | 0.867 | 0.934 | 1.09 | 0.99 | 0.962 | 0.95
11 | BEN | 0.55 | 0.535 | 0.572 | 0.548 | 0.47 | 0.713 | 0.766 | 0.823 | 0.706 | 0.0644 | 0.0591 | 0.069 | 0.0528 | 0.897 | 0.754 | 0.985 | 0.83
12 | NCI-H1666 | 0.621 | 0.628 | 0.609 | 0.657 | 0.434 | 0.871 | 0.777 | 0.828 | 0.651 | 0.893 | 0.758 | 0.724 | 0.316 | 0.902 | 0.972 | 0.726 | 0.604
13 | LC-2-ad | 0.518 | 0.476 | 0.376 | 0.519 | 0.325 | 0.263 | 0.276 | 0.28 | 0.268 | 0.312 | 0.487 | 0.367 | 0.214 | 0.465 | 0.467 | 0.499 | 0.234
14 | SK-LU-1 | 0.32 | 0.286 | 0.303 | 0.331 | 0.336 | 0.99 | 1 | 0.998 | 0.439 | 0.516 | 0.848 | 0.882 | 0.189 | 1.12 | 0.799 | 0.713 | 0.48
15 | Calu-6 |  |  |  |  |  |  |  |  |  | 1.09 | 0.89 | 0.901 | 0.115 | 0.928 | 0.855 | 0.677 | 0.141
16 | NCI-H358 | 0.126 | 0.0956 | 0.0998 | 0.103 | 0.102 | 0.175 | 0.172 | 0.164 | 0.132 |  |  |  |  | 0.544 | 0.544 | 0.458 | 0.0912
17 | NCI-H1648 | 0.432 | 0.422 | 0.615 | 0.533 | 0.507 | 0.806 |  | 0.666 | 0.691 |  |  |  |  |  |  |  | 
18 | EBC-1 |  |  |  |  |  |  |  |  |  | 0.368 | 0.347 | 0.329 | 0.159 | 0.198 | 0.228 | 0.191 | 0.153
19 | NCI-H1299 |  |  |  |  |  |  |  |  |  | 1.12 | 1.02 | 1.08 | 1.24 | 1.03 | 0.997 | 0.947 | 0.31
20 | NCI-H2342 | 0.52 | 0.576 | 0.566 | 0.465 | 0.569 | 0.789 | 0.743 | 0.762 | 0.687 |  |  |  |  |  |  |  | 
21 | IA-LM |  |  |  |  |  |  |  |  |  | 0.917 | 0.865 | 0.69 | 0.435 | 1.02 | 1.03 | 0.573 | 0.0695
22 | NCI-H727 | 0.535 | 0.653 | 0.87 | 0.767 | 0.441 |  |  |  |  | 0.374 | 0.449 | 0.245 | 0.121 | 0.968 | 0.875 | 0.6 | 0.27
23 | NCI-H650 | 0.703 | 0.671 | 0.749 | 0.737 | 0.79 | 1.07 | 1 | 0.931 | 1.25 |  |  |  |  | 0.788 | 0.797 | 0.733 | 0.625
24 | NCI-H661 | 0.333 | 0.347 | 0.341 | 0.369 | 0.343 | 0.945 | 0.953 | 0.99 | 0.262 |  |  |  |  | 0.978 | 1.22 | 1.16 | 1.04
25 | NCI-H1793 | 0.436 | 0.301 | 0.395 | 0.449 | 0.396 | 0.752 | 0.882 | 0.647 | 0.693 | 0.352 | 0.416 | 0.313 | 0.365 |  |  |  | 
